Experimental data as given in article PMC4076210, “Discovery of Novel AKT Inhibitors with Enhanced Anti-Tumor Effects in Combination with the MEK Inhibitor” (PLoS ONE, 2014).
Read-outs that look alike come from different tables or passages of the source.

How the values were obtained:
Experiment in all cases: Kinase panel
Abl (H396P) (h) = molecular target: T1, Abl (H396P) (h) (Homo sapiens, UniProt P00519, H396P); type: biochemical
T1 construct: purchased Millipore KinaseProfiler

Blk(m) = molecular target: T2, Blk(m) (Mus musculus, UniProt P16277); type: biochemical
T2 construct: purchased Millipore KinaseProfiler

CaMKIδ(h) = molecular target: T3, CaMKIδ(h) (Homo sapiens, UniProt Q8IU85); type: biochemical
T3 construct: purchased Millipore KinaseProfiler

CDK2/cyclinA(h) = molecular target: T4, CDK2/cyclinA(h) (Homo sapiens, UniProt P24941); type: biochemical
T4 construct: purchased Millipore KinaseProfiler

CK1(y) = type: biochemical, yeast
CK1δ(h) = molecular target: T5, CK1δ(h) (Homo sapiens, UniProt P48730); type: biochemical
T5 construct: purchased Millipore KinaseProfiler

Haspin(h) = molecular target: T6, Haspin(h) (Homo sapiens, UniProt Q8TF76); type: biochemical
T6 construct: purchased Millipore KinaseProfiler
T6 sequence (Q8TF76 1-798): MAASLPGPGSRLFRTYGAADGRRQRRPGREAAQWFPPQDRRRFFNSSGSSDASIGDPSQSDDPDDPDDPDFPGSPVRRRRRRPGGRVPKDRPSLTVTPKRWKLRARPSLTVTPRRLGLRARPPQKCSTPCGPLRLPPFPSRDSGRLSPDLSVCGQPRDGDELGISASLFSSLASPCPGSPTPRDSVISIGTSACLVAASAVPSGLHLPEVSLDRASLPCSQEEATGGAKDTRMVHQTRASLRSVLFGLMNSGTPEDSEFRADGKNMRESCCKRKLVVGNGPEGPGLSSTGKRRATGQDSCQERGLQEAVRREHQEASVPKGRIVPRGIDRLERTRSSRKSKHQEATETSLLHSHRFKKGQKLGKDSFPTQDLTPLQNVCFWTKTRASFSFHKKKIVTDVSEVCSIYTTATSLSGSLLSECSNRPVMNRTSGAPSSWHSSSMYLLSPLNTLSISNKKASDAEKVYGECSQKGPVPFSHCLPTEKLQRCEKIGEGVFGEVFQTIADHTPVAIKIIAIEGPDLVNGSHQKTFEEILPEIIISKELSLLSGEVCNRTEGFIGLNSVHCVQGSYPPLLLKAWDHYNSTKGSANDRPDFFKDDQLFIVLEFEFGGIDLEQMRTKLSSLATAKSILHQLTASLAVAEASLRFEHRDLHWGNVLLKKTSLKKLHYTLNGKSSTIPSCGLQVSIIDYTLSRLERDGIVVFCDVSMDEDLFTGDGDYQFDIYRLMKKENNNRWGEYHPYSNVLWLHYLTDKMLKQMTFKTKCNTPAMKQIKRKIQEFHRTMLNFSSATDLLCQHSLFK

MST3(h) = molecular target: T7, MST3(h) (Homo sapiens, UniProt Q9Y6E0); type: biochemical
T7 construct: purchased Millipore KinaseProfiler

PAK6(h) = molecular target: T8, PAK6(h) (Homo sapiens, UniProt Q9NQU5); type: biochemical
T8 construct: purchased Millipore KinaseProfiler

PKCε(h) = molecular target: T9, PKCε(h) (Homo sapiens, UniProt Q02156); type: biochemical
T9 construct: purchased Millipore KinaseProfiler
T9 sequence (Q02156 1-737): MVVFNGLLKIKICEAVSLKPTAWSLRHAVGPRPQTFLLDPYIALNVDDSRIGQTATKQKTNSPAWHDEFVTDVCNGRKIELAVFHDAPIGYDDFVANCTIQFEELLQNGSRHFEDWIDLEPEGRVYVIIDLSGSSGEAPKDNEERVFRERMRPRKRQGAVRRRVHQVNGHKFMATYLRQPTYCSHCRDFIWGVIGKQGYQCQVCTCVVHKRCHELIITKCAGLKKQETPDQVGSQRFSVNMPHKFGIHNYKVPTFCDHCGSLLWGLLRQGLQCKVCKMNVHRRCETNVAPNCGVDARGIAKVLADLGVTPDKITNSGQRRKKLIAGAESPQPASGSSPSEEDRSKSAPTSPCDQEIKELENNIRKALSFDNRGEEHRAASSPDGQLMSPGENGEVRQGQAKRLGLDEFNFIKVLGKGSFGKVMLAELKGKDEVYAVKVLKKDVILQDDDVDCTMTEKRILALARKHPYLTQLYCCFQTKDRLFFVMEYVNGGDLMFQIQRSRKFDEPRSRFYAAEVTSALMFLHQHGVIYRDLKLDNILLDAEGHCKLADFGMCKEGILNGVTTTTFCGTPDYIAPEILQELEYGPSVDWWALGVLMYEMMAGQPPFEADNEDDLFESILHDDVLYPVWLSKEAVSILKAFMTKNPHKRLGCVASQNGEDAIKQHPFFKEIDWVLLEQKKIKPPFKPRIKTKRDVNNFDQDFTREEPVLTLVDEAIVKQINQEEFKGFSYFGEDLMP

Ron(h) = molecular target: T10, Ron(h) (Homo sapiens, UniProt Q04912); type: biochemical
T10 construct: purchased Millipore KinaseProfiler

SRPK2(h) = molecular target: T11, SRPK2(h) (Homo sapiens, UniProt P78362); type: biochemical
T11 construct: purchased Millipore KinaseProfiler

Yes(h) = molecular target: T12, Yes(h) (Homo sapiens, UniProt P07947); type: biochemical
T12 construct: purchased Millipore KinaseProfiler

SGK3(h) = molecular target: T13, SGK3(h) (Homo sapiens, UniProt Q96BR1)
T13 sequence (Q96BR1 1-496): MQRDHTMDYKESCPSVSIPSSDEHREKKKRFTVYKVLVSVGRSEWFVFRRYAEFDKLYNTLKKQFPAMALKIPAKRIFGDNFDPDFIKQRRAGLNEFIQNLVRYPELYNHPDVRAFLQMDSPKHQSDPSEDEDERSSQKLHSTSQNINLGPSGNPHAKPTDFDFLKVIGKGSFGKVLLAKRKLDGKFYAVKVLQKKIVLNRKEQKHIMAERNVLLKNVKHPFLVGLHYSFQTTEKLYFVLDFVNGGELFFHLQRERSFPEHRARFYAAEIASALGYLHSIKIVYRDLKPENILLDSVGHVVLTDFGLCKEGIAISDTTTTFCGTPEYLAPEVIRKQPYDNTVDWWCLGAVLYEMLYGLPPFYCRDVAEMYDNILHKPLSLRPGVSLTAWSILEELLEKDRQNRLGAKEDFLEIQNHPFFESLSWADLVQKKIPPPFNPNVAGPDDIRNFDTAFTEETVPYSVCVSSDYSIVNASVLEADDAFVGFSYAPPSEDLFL

T8 sequence (Q9NQU5 whole entry): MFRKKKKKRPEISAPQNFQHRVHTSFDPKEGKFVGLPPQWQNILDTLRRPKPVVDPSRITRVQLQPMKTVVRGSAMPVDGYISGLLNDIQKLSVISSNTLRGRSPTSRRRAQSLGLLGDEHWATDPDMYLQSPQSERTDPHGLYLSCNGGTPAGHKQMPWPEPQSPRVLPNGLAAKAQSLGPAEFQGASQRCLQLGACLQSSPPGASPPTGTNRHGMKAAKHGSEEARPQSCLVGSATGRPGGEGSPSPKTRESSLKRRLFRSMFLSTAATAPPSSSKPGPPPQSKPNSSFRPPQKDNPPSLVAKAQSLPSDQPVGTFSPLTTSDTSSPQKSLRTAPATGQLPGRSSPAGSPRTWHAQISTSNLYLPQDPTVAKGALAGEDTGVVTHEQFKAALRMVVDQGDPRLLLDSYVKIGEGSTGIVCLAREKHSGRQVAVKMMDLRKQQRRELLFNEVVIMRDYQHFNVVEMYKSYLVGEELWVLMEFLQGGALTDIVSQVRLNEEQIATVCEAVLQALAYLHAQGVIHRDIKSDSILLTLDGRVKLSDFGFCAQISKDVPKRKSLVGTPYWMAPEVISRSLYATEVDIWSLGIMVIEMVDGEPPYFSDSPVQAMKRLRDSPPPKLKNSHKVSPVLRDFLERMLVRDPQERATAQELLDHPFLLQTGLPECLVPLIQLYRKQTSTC
T11 sequence (P78362 whole entry): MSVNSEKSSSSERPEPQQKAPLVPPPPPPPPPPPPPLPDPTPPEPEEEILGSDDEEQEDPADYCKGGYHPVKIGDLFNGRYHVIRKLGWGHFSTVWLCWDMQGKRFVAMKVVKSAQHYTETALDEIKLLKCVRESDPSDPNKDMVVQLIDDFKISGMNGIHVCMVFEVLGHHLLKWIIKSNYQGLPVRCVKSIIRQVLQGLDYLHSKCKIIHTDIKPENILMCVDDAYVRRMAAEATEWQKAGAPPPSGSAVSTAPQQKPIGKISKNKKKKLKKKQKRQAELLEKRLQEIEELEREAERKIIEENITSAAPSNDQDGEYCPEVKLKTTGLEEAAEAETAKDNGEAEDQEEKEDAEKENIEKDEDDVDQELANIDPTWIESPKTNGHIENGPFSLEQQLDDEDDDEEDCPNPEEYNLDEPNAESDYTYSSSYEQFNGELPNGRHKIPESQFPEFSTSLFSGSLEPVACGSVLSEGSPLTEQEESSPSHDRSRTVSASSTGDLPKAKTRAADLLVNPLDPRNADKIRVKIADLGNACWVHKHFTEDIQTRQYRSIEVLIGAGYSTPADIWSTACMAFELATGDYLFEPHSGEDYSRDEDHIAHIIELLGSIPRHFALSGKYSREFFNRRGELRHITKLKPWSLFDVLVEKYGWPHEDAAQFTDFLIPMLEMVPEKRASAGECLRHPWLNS
T12 sequence (P07947 whole entry): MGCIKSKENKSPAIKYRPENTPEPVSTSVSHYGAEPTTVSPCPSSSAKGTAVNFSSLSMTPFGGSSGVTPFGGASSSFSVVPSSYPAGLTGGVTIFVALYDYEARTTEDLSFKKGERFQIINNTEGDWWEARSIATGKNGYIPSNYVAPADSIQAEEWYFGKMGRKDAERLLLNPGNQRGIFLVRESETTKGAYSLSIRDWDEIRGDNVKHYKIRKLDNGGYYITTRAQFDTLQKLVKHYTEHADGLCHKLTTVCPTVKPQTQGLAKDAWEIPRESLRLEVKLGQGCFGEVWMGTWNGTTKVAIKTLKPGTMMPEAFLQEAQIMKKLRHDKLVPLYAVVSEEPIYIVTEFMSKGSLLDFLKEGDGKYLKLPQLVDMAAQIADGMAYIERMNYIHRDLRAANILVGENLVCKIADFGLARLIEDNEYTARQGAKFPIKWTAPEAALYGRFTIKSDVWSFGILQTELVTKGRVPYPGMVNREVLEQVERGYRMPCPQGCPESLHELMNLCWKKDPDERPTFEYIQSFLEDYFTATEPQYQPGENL
T7 sequence (Q9Y6E0 whole entry): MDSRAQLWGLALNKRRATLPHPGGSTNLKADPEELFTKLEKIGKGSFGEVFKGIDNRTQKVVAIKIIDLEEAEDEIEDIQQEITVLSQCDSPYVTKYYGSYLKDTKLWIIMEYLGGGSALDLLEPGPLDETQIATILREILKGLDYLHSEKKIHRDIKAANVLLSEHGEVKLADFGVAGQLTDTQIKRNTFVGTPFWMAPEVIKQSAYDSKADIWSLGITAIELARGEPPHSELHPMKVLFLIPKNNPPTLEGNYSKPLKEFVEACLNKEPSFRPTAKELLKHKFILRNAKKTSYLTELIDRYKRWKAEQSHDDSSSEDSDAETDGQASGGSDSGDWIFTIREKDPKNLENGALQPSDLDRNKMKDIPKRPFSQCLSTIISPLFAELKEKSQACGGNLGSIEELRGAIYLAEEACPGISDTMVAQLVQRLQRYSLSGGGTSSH
T2 sequence (P16277 2-499 limits assumed): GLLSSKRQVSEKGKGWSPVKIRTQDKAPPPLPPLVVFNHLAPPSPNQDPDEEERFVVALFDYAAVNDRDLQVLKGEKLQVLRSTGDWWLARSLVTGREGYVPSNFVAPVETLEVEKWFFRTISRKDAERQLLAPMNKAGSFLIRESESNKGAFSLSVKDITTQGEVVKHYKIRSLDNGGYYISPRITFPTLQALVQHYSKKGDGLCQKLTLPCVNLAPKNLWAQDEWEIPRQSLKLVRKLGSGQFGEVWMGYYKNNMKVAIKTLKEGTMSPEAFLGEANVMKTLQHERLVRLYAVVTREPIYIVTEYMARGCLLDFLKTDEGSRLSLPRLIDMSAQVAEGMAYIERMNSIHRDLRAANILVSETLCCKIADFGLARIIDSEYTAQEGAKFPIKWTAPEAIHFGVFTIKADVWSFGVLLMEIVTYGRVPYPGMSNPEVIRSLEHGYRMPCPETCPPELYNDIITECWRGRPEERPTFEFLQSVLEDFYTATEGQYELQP
T10 sequence (Q04912 25-1400): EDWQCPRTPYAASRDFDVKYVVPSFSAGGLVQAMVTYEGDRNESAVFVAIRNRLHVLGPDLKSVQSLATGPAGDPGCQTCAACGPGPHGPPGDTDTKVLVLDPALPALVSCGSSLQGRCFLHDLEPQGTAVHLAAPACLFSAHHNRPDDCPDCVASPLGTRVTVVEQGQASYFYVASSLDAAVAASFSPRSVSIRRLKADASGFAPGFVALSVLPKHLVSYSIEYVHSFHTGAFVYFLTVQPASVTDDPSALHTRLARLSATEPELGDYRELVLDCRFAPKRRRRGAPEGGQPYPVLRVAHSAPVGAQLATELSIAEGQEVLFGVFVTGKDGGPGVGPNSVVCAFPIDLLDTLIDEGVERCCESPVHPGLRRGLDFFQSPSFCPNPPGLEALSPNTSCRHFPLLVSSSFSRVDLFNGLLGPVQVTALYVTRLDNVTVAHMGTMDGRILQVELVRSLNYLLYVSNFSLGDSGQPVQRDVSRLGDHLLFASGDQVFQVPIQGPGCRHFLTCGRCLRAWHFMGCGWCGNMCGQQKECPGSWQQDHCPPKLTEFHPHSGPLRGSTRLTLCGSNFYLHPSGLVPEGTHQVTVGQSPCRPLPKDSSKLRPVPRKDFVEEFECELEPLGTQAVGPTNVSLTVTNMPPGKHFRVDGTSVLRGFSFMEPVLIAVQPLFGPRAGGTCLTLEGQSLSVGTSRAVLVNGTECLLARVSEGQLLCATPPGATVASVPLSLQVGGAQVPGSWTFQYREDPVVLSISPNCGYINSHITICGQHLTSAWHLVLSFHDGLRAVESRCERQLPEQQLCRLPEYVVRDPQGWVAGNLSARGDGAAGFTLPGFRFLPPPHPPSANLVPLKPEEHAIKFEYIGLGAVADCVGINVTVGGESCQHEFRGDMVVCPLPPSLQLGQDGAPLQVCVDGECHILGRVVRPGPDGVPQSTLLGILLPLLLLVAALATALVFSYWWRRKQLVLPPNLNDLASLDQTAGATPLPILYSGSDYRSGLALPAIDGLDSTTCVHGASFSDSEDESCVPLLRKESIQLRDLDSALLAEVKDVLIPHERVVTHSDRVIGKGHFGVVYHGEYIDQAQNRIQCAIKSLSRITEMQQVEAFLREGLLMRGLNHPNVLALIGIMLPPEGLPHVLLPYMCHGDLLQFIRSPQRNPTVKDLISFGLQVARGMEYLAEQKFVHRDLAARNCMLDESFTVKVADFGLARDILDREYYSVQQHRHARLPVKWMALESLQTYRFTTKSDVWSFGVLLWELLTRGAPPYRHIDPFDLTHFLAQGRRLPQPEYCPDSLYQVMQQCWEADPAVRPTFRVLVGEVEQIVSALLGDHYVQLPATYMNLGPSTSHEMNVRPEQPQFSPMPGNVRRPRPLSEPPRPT
T3 sequence (Q8IU85 whole entry): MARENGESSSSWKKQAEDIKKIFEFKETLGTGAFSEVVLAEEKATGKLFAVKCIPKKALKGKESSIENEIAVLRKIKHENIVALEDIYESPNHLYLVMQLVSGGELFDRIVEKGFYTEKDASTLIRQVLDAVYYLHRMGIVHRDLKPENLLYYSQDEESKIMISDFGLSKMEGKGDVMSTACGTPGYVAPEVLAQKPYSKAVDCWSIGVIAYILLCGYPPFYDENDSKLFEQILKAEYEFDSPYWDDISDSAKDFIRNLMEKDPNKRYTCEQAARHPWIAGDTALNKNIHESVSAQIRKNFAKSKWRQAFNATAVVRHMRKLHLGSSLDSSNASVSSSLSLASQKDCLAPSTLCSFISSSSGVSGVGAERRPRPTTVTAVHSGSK
T5 sequence (P48730 whole entry): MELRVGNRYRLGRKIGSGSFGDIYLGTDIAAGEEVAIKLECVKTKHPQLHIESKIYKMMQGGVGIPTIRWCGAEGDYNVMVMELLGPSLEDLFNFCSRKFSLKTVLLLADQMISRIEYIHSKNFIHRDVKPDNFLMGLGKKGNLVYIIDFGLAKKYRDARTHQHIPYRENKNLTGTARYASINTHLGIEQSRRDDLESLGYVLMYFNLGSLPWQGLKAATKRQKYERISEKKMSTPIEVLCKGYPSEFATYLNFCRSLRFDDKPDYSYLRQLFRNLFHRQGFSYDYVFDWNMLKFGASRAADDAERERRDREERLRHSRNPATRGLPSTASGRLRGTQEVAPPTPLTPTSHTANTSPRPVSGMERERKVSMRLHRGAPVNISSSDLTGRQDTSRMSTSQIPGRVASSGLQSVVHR

## Cn1ncc(Cl)c1-c1cc(C(=O)N[C@H](CN)Cc2cccc(F)c2)sc1Cl [GSK2110183]
Abl (H396P) (h)
  inhibition at 0.5 µM: -2%
  inhibition at 10 µM: 10%
Blk(m)
  inhibition at 0.5 µM: -12%
  inhibition at 10 µM: 9%
CaMKIδ(h)
  inhibition at 0.5 µM: 18%
  inhibition at 10 µM: 78%
CDK2/cyclinA(h)
  inhibition at 0.5 µM: -10%
  inhibition at 10 µM: 1%
CK1(y); 0.5 µM
  % Inhibition: 3%
CK1(y); 10 µM
  % Inhibition: 54%
CK1δ(h)
  inhibition at 0.5 µM: -1%
  inhibition at 10 µM: 49%
Haspin(h)
  inhibition at 0.5 µM: 46%
  inhibition at 10 µM: 90%
MST3(h)
  inhibition at 0.5 µM: 14%
  inhibition at 10 µM: 50%
PAK6(h)
  inhibition at 0.5 µM: 13%
  inhibition at 10 µM: 73%
PKCε(h)
  inhibition at 0.5 µM: 19%
  inhibition at 10 µM: 80%
Ron(h)
  inhibition at 0.5 µM: 12%
  inhibition at 10 µM: 30%
SRPK2(h)
  inhibition at 0.5 µM: 26%
  inhibition at 10 µM: 37%
Yes(h)
  inhibition at 0.5 µM: 2%
  inhibition at 10 µM: 38%
SGK3(h)
  inhibition at 0.5 µM: 7%
  inhibition at 10 µM: 76%

## Cn1ncc(Cl)c1-c1cc(C(=O)N[C@H](CN)Cc2ccc(F)c(F)c2)oc1Cl [GSK2141795]
Abl (H396P) (h); 0.5 µM, read-out: % Inhibition
  inhibition at 0.5 µM: 4%
Abl (H396P) (h); 10 µM, read-out: % Inhibition
  inhibition at 10 µM: 1%
Blk(m); 0.5 µM, read-out: % Inhibition
  inhibition at 0.5 µM: -35%
Blk(m); 10 µM, read-out: % Inhibition
  inhibition at 10 µM: 8%
CaMKIδ(h); 0.5 µM, read-out: % Inhibition
  inhibition at 0.5 µM: 16%
CaMKIδ(h); 10 µM, read-out: % Inhibition
  inhibition at 10 µM: 84%
CDK2/cyclinA(h); 0.5 µM, read-out: % Inhibition
  inhibition at 0.5 µM: 1%
CDK2/cyclinA(h); 10 µM, read-out: % Inhibition
  inhibition at 10 µM: 20%
CK1(y); 0.5 µM
  % Inhibition: 35%
CK1(y); 10 µM
  % Inhibition: 93%
CK1δ(h); 0.5 µM, read-out: % Inhibition
  inhibition at 0.5 µM: -2%
CK1δ(h); 10 µM, read-out: % Inhibition
  inhibition at 10 µM: 63%
Haspin(h); 0.5 µM, read-out: % Inhibition
  inhibition at 0.5 µM: 76%
Haspin(h); 10 µM, read-out: % Inhibition
  inhibition at 10 µM: 101%
MST3(h); 0.5 µM, read-out: % Inhibition
  inhibition at 0.5 µM: 10%
MST3(h); 10 µM, read-out: % Inhibition
  inhibition at 10 µM: 63%
PAK6(h); 0.5 µM, read-out: % Inhibition
  inhibition at 0.5 µM: 11%
PAK6(h); 10 µM, read-out: % Inhibition
  inhibition at 10 µM: 64%
PKCε(h); 0.5 µM, read-out: % Inhibition
  inhibition at 0.5 µM: 32%
PKCε(h); 10 µM, read-out: % Inhibition
  inhibition at 10 µM: 81%
Ron(h); 0.5 µM, read-out: % Inhibition
  inhibition at 0.5 µM: 5%
Ron(h); 10 µM, read-out: % Inhibition
  inhibition at 10 µM: 73%
SRPK2(h); 0.5 µM, read-out: % Inhibition
  inhibition at 0.5 µM: 1%
SRPK2(h); 10 µM, read-out: % Inhibition
  inhibition at 10 µM: 27%
Yes(h); 0.5 µM, read-out: % Inhibition
  inhibition at 0.5 µM: -4%
Yes(h); 10 µM, read-out: % Inhibition
  inhibition at 10 µM: 83%
SGK3(h)
  inhibition at 0.5 µM: 18%
  inhibition at 10 µM: 84%
